Read-outs that look alike come from different tables or passages of the source.
Columns and labels:
[1] = Pharmacokinetic studies in rats (plasma, brain, CSF); assay type: in vivo; details: for half-life: read-out: t½ (converted); for Cmax / AUC(0-t) / AUC(0-inf): normalized to 25 mg/kg; for AUC(0-t): read-out: Exposure/trapezoid AUC0-18; for AUC(0-inf): read-out: Exposure/trapezoid AUC0-inf
Description: Male Sprague Dawley rats weighing approximately 200 g received test article (E19 or 82) as a single oral gavage (OG) dose of approximately 25 mg/kg (approximately 10 animals per group).
All doses were administered as clear colorless solutions as in situ sodium salts in 5% (m/v) dextrose:2% (v/v) ethanol in DWI. All dose solutions were delivered at 2 mL/kg. Animals were fasted for at least 4 hours before dosing, and for 2 hours after dosing.
Blood and CSF samples and brain tissue were sampled from 1 animal/timepoint/group immediately before dosing and approximately 0.5, 1, 2, 3, 4, 6, 8, 12, 18 and 24 hr after dosing for full pharmacokinetic (plasma and CSF) and tissue (Brain) analysis.

[2] = system: bloodstream-form trypanosome T. brucei brucei 427 strain; test: Trypanosoma brucei brucei high-throughput in vitro drug sensitivity assay (resazurin); assay type: cell-based; details: Trypanosoma brucei, 72 h
[3] = male, Sprague Dawley, rat, CSF, oral, rats
[4] = male, Sprague Dawley, rat, brain, oral, rats
[5] = male, Sprague Dawley, rat, plasma, oral, rats

CC1(C)OB(O)c2cc(NC(=O)c3ccc(F)cc3C(F)(F)F)ccc21 [compound 82]
half-life ([1]; male, Sprague Dawley, rat, 25 mg/kg, CSF, oral, rats): 8.7 h
half-life ([1]; male, Sprague Dawley, rat, 25 mg/kg, brain, oral, rats): 9.5 h
CL/F ([1]; male, Sprague Dawley, rat, 25 mg/kg, plasma, oral, rats, read-out: Oral Clearance Cl/F (converted)): 1.53 mL/min/kg
half-life ([1]; male, Sprague Dawley, rat, 25 mg/kg, plasma, oral, rats): 15.5 h
Cmax [1, 3]: 1000 ng/mL
AUC(0-t) [1, 3]: 13.6 µg·h/mL
AUC(0-inf) [1, 3]: 16.8 µg·h/mL
Cmax [1, 4]: 7900 ng/mL
AUC(0-t) [1, 4]: 120 µg·h/mL
AUC(0-inf) [1, 4]: 152 µg·h/mL
Cmax [1, 5]: 17000 ng/mL
AUC(0-t) [1, 5]: 272 µg·h/mL
AUC(0-inf) [1, 5]: 433 µg·h/mL
time levels in brain and CSF are above the in vitro MIC ([1]; nominal single oral dose of 25 mg/kg to rats): approximately 12 hours
fold improved exposure in CSF over E19 ([1]; rat, in vivo): approximately 4 fold
Fold improvement 82 vs. E19: Oral Clearance Cl/F ([1]; rat, in vivo, po): 2.8 fold
Fold improvement 82 vs. E19: t½ ([1]; rat, in vivo, po, CSF): 2.8 fold
Fold improvement 82 vs. E19: t½ ([1]; rat, in vivo, po, brain): 3.7 fold
Fold improvement 82 vs. E19: t½ ([1]; rat, in vivo, po, plasma): 1.9 fold
IC50 ([2]; read-out: T. b. brucei IC50 (nM)): 556 nM
IC50 ([2]; read-out: T.b. brucei IC50 (ug/mL)): 0.204 µg/mL

Reference: US20110190235A1, “BORON-CONTAINING SMALL MOLECULES AS ANTIPROTOZOAL AGENTS” (Anacor Pharmaceuticals, Inc., priority 2009, published 2011)
